# Assay results: ChEMBL document CHEMBL5584307, “Discovery of a Potent and Orally Bioavailable Xanthine Oxidase/Urate Transporter 1 Dual Inhibitor as a Potential Treatment for Hyperuricemia and Gout” (J Med Chem, 2024)
# Key:
# [1] = Half life in overnight-fasted Sprague-Dawley rat at 5 mg/kg, po measured upto 24 hrs by LC-MS/MS analysis; format: ADME, organism-based; conditions: in vivo
# [2] = AUC (last) in overnight-fasted Sprague-Dawley rat at 1 mg/kg, iv measured upto 24 hrs by LC-MS/MS analysis; format: ADME, organism-based; conditions: in vivo
# [3] = Clearance in overnight-fasted Sprague-Dawley rat at 1 mg/kg, iv measured upto 24 hrs by LC-MS/MS analysis; format: ADME, organism-based; conditions: in vivo
# [4] = Volume of distribution at steady state in overnight-fasted Sprague-Dawley rat at 5 mg/kg, po or 1 mg/kg, iv measured upto 24 hrs by LC-MS/MS analysis; format: ADME, organism-based; conditions: in vivo
# [5] = Stability in human liver microsomes assessed as half life at 1 uM measured upto 60 mins in presence of NADPH by LC-MS/MS analysis; format: ADME, Microsome
# [6] = Stability in rat liver microsomes assessed as half life at 1 uM measured upto 60 mins in presence of NADPH by LC-MS/MS analysis; format: ADME, Microsome
# [7] = Stability in monkey liver microsomes assessed as half life at 1 uM measured upto 60 mins in presence of NADPH by LC-MS/MS analysis; format: ADME, Macaca mulatta, Microsome; conditions: rhesus monkey
# Cytochrome P450 2C9 = Cytochrome P450 2C9 (Homo sapiens, UniProt P11712); test: Inhibition of CYP2C9 in human liver microsomes in presence of NADPH by LC-MS/MS analysis; format: ADME, Microsome
# Cytochrome P450 2B6 = target: T1, Cytochrome P450 2B6 (Homo sapiens, UniProt P20813); test: Induction of CYP2B6 in human hepatocytes at 50 uM incubated for 48 hrs with media containing compound renewal every 24 hrs followed by substrate addition measured after 30 mins by LC-MS/MS analysis; format: ADME, cell-based, Hepatocyte; conditions: 48.5 h
# T1 sequence (P20813 whole entry): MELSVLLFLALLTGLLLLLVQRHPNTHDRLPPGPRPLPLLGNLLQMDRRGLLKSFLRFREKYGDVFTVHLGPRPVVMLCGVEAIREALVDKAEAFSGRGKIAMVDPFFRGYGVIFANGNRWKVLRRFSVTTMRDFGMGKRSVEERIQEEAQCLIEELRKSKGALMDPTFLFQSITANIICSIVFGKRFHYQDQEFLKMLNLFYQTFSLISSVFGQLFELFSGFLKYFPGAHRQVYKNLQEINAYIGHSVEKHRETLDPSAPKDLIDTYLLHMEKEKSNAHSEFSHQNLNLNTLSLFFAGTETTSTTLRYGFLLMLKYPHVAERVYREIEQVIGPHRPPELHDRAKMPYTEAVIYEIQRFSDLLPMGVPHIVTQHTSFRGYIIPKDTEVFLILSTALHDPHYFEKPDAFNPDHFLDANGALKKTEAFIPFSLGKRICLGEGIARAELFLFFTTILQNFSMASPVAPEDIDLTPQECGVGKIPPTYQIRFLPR
# [8] = Ratio of drug concentration in Sprague-Dawley rat kidney to plasma at 3 mg/kg, po measured for 24 hrs by LC-MS/MS analysis; format: ADME, organism-based; conditions: kidney and plasma
# [9] = target: T2, Voltage-gated inwardly rectifying potassium channel KCNH2 (Homo sapiens, UniProt Q12809); test: Inhibition of hERG by electrophysiology; format: toxicity
# [10] = Toxicity in rat; conditions: in vivo
# [11] = Toxicity in monkey; set-up: species or system Macaca mulatta; conditions: rhesus monkey, in vivo
# [12] = AUC (last) in Beagle dog at 1 mg/kg, iv measured upto 24 hrs by LC-MS/MS analysis; format: ADME, organism-based, Canis lupus familiaris; conditions: in vivo
# [13] = Oral bioavailability in Beagle dog at 5 mg/kg measured upto 24 hrs by LC-MS/MS analysis; format: ADME, organism-based, Canis lupus familiaris; conditions: in vivo
# [14] = Cmax in Cynomolgous monkey at 5 mg/kg, po measured upto 24 hrs by LC-MS/MS analysis; format: ADME, organism-based, Macaca fascicularis; conditions: cynomolgus monkey, in vivo
# [15] = Clearance in Cynomolgous monkey at 1 mg/kg, iv measured upto 24 hrs by LC-MS/MS analysis; format: ADME, organism-based, Macaca fascicularis; conditions: cynomolgus monkey, in vivo
# [16] = Volume of distribution at steady state in Cynomolgous monkey at 5 mg/kg, po or 1 mg/kg, iv measured upto 24 hrs by LC-MS/MS analysis; format: ADME, organism-based, Macaca fascicularis; conditions: cynomolgus monkey, in vivo
# Sapajus apella [17] = test: Urate lowering effect in Tufted capuchin monkey assessed as fraction excretion of uric acid at 100 mg/kg/day, po qd for 3 days consecutively relative to control; format: functional; conditions: time 3 day
# Sapajus apella [18] = test: Urate lowering effect in Tufted capuchin monkey assessed as urine xanthine level at 30 mg/kg/day, po qd for 3 days consecutively; format: functional; conditions: time 3 day
# [19] = Half life in Tufted capuchin monkey at 10 mg/kg, po measured for 24 hrs by LC-MS/MS analysis; format: ADME, organism-based; conditions: sapajus apella, in vivo
# [20] = Tmax in Tufted capuchin monkey at 10 mg/kg, po measured for 24 hrs by LC-MS/MS analysis; format: ADME, organism-based; conditions: sapajus apella, in vivo
# [21] = Half life in Tufted capuchin monkey at 30 mg/kg, po measured for 24 hrs by LC-MS/MS analysis; format: ADME, organism-based; conditions: sapajus apella, in vivo
# [22] = target: T2, Voltage-gated inwardly rectifying potassium channel KCNH2; test: Inhibition of hERG transfected in HEK293 cells by patch clamp assay; format: toxicity, cell-based
# [23] = Genotoxicity in Salmonella typhimurium TA98 by Ames test; format: toxicity; conditions: salmonella enterica subsp. enterica serovar typhimurium
# [24] = Toxicity in rat assessed as increase in salivation at 120 mg/kg/day for 28 days; format: organism-based; conditions: in vivo, 672 h, time 28 day
# [25] = Toxicity in rat assessed as decrease in food consumption at 60 to 120 mg/kg/day for 28 days; format: organism-based; conditions: in vivo, 672 h, dose 60-120 mg/kg/day, time 28 day
# [26] = Toxicity in rat assessed as mucosal necrosis in pylorus at 120 mg/kg/day for 28 days by H and E staining based analysis; format: organism-based; conditions: in vivo, 672 h, time 28 day
# [27] = Toxicity in rat assessed as single-cellular necrosis of mucosal epithelium in colon at 120 mg/kg/day for 28 days by H and E staining based analysis; format: organism-based; conditions: in vivo, 672 h, time 28 day
# [28] = Toxicity in rat assessed as diffuse hepatocytes hypertrophy at 120 mg/kg/day for 28 days by H and E staining based analysis; format: organism-based; conditions: in vivo, 672 h, time 28 day
# [29] = Toxicity in rat assessed as increase in liver weight at 60 to 120 mg/kg/day for 28 days; format: organism-based; conditions: in vivo, 672 h, dose 60-120 mg/kg/day, time 28 day
# [30] = AUC (0 to t) in female rat at 60 mg/kg/day for 28 days; format: ADME, organism-based; conditions: in vivo, time 28 day
# [31] = AUC (0 to t) in male rat at 60 mg/kg/day for 28 days; format: ADME, organism-based; conditions: in vivo, time 28 day
# [32] = Toxicity in cynomolgous monkey assessed as drug tolerance at 30 to 200 mg/kg/day for 28 days consecutively; format: organism-based, Macaca fascicularis; conditions: cynomolgus monkey, in vivo, 672 h; dose 30-200 mg/kg/day, time 28 day
# [33] = Toxicity in cynomolgous monkey assessed as distended abdomen at 200 mg/kg/day for 28 days consecutively; format: organism-based, Macaca fascicularis; conditions: cynomolgus monkey, in vivo, 672 h, time 28 day
# [34] = Toxicity in cynomolgous monkey assessed as decrease in food consumption at 90 to 200 mg/kg/day for 28 days consecutively; format: organism-based, Macaca fascicularis; conditions: cynomolgus monkey, in vivo, 672 h; dose 90-200 mg/kg/day, time 28 day
# [35] = Toxicity in cynomolgous monkey assessed as flatus in intestines at 200 mg/kg/day for 28 days consecutively; format: organism-based, Macaca fascicularis; conditions: cynomolgus monkey, in vivo, 672 h, time 28 day
# [36] = AUC (0 to t) in male cynomolgous monkey at 30 mg/kg/day for 28 days; format: ADME, organism-based, Macaca fascicularis; conditions: cynomolgus monkey, in vivo, time 28 day
# T2 sequence (Q12809 whole entry): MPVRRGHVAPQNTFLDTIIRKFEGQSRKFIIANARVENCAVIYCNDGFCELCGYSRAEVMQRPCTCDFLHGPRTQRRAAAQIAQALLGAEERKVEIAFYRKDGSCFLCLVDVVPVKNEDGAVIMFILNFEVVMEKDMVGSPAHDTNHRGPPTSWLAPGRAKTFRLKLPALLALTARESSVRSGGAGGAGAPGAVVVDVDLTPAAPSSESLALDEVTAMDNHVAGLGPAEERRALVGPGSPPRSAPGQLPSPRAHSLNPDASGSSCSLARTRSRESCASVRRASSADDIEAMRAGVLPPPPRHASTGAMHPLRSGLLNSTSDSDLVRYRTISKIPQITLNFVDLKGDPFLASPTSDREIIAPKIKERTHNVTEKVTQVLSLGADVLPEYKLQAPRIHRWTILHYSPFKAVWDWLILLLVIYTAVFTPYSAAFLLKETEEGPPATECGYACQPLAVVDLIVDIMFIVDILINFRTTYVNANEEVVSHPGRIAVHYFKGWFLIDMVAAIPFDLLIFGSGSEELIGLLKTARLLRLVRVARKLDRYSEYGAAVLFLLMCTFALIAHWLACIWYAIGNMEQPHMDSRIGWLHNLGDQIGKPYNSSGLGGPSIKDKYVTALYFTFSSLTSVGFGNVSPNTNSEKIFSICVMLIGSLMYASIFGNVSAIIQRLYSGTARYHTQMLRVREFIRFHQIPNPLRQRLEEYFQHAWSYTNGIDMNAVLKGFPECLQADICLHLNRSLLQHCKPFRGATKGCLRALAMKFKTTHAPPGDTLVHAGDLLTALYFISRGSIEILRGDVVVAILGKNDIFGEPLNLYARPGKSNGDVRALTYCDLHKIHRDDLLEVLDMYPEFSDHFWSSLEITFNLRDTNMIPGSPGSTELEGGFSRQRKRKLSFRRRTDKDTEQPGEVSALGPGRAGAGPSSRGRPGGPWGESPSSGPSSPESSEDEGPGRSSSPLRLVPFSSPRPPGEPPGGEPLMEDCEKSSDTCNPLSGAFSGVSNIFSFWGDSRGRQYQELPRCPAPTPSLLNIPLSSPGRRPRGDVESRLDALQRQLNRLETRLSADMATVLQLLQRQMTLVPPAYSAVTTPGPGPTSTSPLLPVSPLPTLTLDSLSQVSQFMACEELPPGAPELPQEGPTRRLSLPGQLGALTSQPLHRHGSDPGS
# Cytochrome P450 2C9, sequence (P11712 whole entry): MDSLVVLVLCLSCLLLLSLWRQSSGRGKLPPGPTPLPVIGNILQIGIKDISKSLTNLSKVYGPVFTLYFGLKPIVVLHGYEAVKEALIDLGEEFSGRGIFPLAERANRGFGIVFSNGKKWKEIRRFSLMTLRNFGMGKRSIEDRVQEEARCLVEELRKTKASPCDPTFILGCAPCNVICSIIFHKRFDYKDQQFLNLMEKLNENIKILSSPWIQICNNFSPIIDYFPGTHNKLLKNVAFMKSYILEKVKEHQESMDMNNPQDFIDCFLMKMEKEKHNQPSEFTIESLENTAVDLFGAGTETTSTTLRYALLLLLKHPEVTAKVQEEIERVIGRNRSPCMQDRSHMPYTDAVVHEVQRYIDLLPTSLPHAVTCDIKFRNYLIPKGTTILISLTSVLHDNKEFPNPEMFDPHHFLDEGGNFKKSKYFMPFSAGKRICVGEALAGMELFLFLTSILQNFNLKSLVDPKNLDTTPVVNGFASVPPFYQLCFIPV
compound,measurement,setting,value
N#Cc1cc(-c2ccc(C(=O)O)c(O)c2)c2oc(F)cc2c1,half-life,[1],2.84 h
same,AUC(0-t) at 24 h,[2],10.9 µg·h/mL
same,clearance,[3],1.51 mL/min/kg
same,Vdss,[4],0.31 L/kg
same,half-life at 1 µM,[5],3.75 h
same,half-life at 1 µM,[6],3.38 h
same,half-life at 1 µM,[7],2.87 h
same,IC50,Cytochrome P450 2C9,2.78 µM
same,Activity,Cytochrome P450 2B6,< 20%
same,Kp at 24 h,[8],0.56
same,IC50,[9],> 52 µM
same,MTD,[10],450 mg/kg
same,MTD,[11],1000 mg/kg
same,AUC(0-t) at 24 h,[12],3.13 µg·h/mL
same,bioavailability,[13],69.9%
same,Cmax,[14],3360 ng/mL
same,clearance,[15],0.993 mL/min/kg
same,Vdss,[16],0.297 L/kg
same,Activity,Sapajus apella [17],23.55%
same,Activity,Sapajus apella [18],29.26 µg·h/mL
same,half-life,[19],1.52 h
same,Tmax,[20],0.8 h
same,half-life,[21],3.1 h
same,IC50,[22],> 52 µM
same,Activity,[23],Non-Toxic
same,Activity,[24],Toxic
same,Activity,[25],Toxic
same,Activity,[26],Toxic
same,Activity,[27],Toxic
same,Activity,[28],Toxic
same,Activity,[29],Toxic
same,AUC(0-t) at 672 h,[30],2390 µg·h/mL
same,AUC(0-t) at 672 h,[31],2250 µg·h/mL
same,Activity,[32],Non-Toxic
same,Activity,[33],Toxic
same,Activity,[34],Toxic
same,Activity,[35],Toxic
same,AUC(0-t) at 672 h,[36],339 µg·h/mL
